Test results taken from patent US20170150719A1, “FUNGICIDAL PYRAZOLES AND THEIR MIXTURES” (E I DU PONT DE NEMOURS AND COMPANY, priority 2010, published 2017).
Marks after values point to notes of the source that are not given here.

Columns and labels:
[1] = test system: Blumeria graminis f. sp. tritici; assay: Test I: wheat powdery mildew, preventive spray on wheat seedlings, visual disease rating; details: for Test I rating (% disease control) / Test I rating (% disease control), marked *: wheat powdery mildew, preventive spray; for Test I rating (% disease control): rating without asterisk; for pest or weed control at 40 µg/mL: read-out: Test I rating (% disease control), marked *, wheat powdery mildew, preventive spray; for pest or weed control at 40 µg/mL / Test I rating (% disease control), marked *: rating marked with asterisk (*), other test suspension concentration than unmarked ratings
Experimental: General protocol for preparing test suspensions for Tests A-I: the test compounds were first dissolved in acetone in an amount equal to 3% of the final volume and then suspended at the desired concentration (in ppm) in acetone and purified water (50/50 mix by volume) containing 250 ppm of the surfactant Trem® 014 (polyhydric alcohol esters). The resulting test suspensions were then used in Tests A-I. Each test was conducted in triplicate, and the results were averaged. Spraying a 200 ppm test suspension to the point of run-off on the test plants was the equivalent of a rate of about 800 g/ha. Unless otherwise indicated, the rating values indicate a 200 ppm test suspension was used. (An asterisk “*” next to the rating value indicates a 40 ppm test suspension was used.)
The test suspension was sprayed to the point of run-off on wheat seedlings. The following day the seedlings were inoculated with a spore dust of Blumeria graminis f. sp. tritici (also known as Erysiphe graminis f. sp. tritici, the causal agent of wheat powdery mildew) and incubated in a growth chamber at 20° C. for 8 days, after which time visual disease ratings were made.

Botrytis cinerea = assay: Test A: tomato Botrytis, preventive spray on tomato seedlings, visual disease rating; details: for Test A rating (% disease control) / Test A rating (% disease control), marked *: tomato Botrytis, preventive spray; for Test A rating (% disease control): 0 = no control relative to controls, rating without asterisk; for pest or weed control at 40 µg/mL: read-out: Test A rating (% disease control), marked *, tomato Botrytis, preventive spray; for pest or weed control at 40 µg/mL / Test A rating (% disease control), marked *: rating marked with asterisk (*), other test suspension concentration than unmarked ratings
Septoria tritici = assay: Test F: wheat leaf blotch, preventive spray on wheat seedlings, visual disease rating; type: in vivo; set-up: pest or weed control: dose or concentration left out as unconfirmed; details: for Test F rating (% disease control) / pest or weed control / Test F rating (% disease control), marked *: preventive spray; for Test F rating (% disease control): rating without asterisk; for pest or weed control / Test F rating (% disease control), marked *: rating marked with asterisk (*), other test suspension concentration than unmarked ratings
Excerpt: A hyphen (-) indicates no test results.

[2] = test system: Puccinia recondita f. sp. tritici; assay: Test H: wheat leaf rust, preventive spray on wheat seedlings, visual disease rating; details: for Test H rating (% disease control) / Test H rating (% disease control), marked *: wheat leaf rust, preventive spray; for Test H rating (% disease control): rating without asterisk; for pest or weed control at 40 µg/mL: read-out: Test H rating (% disease control), marked *, wheat leaf rust, preventive spray; for pest or weed control at 40 µg/mL / Test H rating (% disease control), marked *: rating marked with asterisk (*), other test suspension concentration than unmarked ratings
Septoria nodorum = assay: Test E: Septoria glume blotch, preventive spray on wheat seedlings, visual disease rating; details: Septoria glume blotch on wheat, preventive spray; rating marked with asterisk (*), other test suspension concentration than unmarked ratings
[3] = Blumeria graminis, in Triticum aestivum
[4] = Botrytis cinerea, in Solanum lycopersicum

Structure (SMILES) | Test I rating (% disease control) ([1]; 100 = 100% disease control) [%] | Test A rating (% disease control) (Botrytis cinerea; 100 = 100% disease control) [%] | Test F rating (% disease control) (Septoria tritici; 100 = 100% disease control) [%] | Test H rating (% disease control) ([2]; 100 = 100% disease control) [%] | pest or weed control at 40 µg/mL [1, 3] [%] | pest or weed control at 40 µg/mL (Botrytis cinerea; [4]) [%] | pest or weed control (Septoria tritici; Zymoseptoria tritici) [%] | pest or weed control at 40 µg/mL [2] [%] | other results
Cc1nn(C)c(Nc2c(F)cc(F)cc2Cl)c1-c1ccc(Br)cc1F [compound 234] | 79 | 97 | 100 | 91 | – | – | – | – | –
COc1ccc(-c2c(C)nn(C)c2Nc2c(C)cccc2Cl)c(Cl)c1 [Compound 262, 4-(2-chloro-4-methoxyphenyl)-N-(2-chloro-6-methylphenyl)-1,3-dimethyl-1H-pyrazol-5-amine] | – | – | – | – | 79 | 97 | 100 | 85 | Test E rating (% disease control), marked * (Septoria nodorum): 0* %
Cc1nn(C)c(Nc2c(Cl)cccc2Cl)c1-c1ccc(F)cc1Br [compound 256] | – | – | – | – | – | – | – | – | Test I rating (% disease control), marked * [1]: 64* %; Test A rating (% disease control), marked * (Botrytis cinerea): 99* %; Test F rating (% disease control), marked * (Septoria tritici): 100* %; Test H rating (% disease control), marked * [2]: 95* %
COc1ccc(-c2c(C)nn(C)c2Nc2c(F)cccc2Cl)c(F)c1 [Compound 260, N-(2-chloro-6-fluorophenyl)-4-(2-fluoro-4-methoxyphenyl)-1,3-dimethyl-1H-pyrazol-5-amine] | – | – | – | – | 90 | 100 | 100 | 85 | Test E rating (% disease control), marked * (Septoria nodorum): 0* %
COc1ccc(-c2c(C)nn(C)c2Nc2c(F)cccc2Br)c(F)c1 [Compound 261, N-(2-bromo-6-fluorophenyl)-4-(2-fluoro-4-methoxyphenyl)-1,3-dimethyl-1H-pyrazol-5-amine] | – | – | – | – | 95 | – | 100 | 97 | Test E rating (% disease control), marked * (Septoria nodorum): 0* %
Cc1nn(C)c(Nc2c(Cl)cc(F)cc2Cl)c1-c1ccc(C#N)cc1F [compound 249] | 92 | 100 | 100 | 98 | – | – | – | – | –
Cc1nn(C)c(Nc2ccccc2I)c1-c1ccc(F)cc1Br [compound 243] | 100 | 100 | 100 | 99 | – | – | – | – | –
Cc1nn(C)c(Nc2c(Cl)cccc2Cl)c1-c1ccc(F)cc1Cl [compound 255] | – | – | – | – | – | – | – | – | Test I rating (% disease control), marked * [1]: 81* %; Test A rating (% disease control), marked * (Botrytis cinerea): 100* %; Test F rating (% disease control), marked * (Septoria tritici): 100* %; Test H rating (% disease control), marked * [2]: 99* %
Cc1nn(C)c(Nc2c(Cl)cc(F)cc2Cl)c1-c1ccc(Br)cc1F [compound 233] | 89 | 36 | 100 | 91 | – | – | – | – | –
Cc1nn(C)c(Nc2c(F)cc(F)cc2Br)c1-c1ccc(Br)cc1F [compound 235] | 90 | 99 | 100 | 96 | – | – | – | – | –
Cc1nn(C)c(Nc2c(F)cc(F)cc2C#N)c1-c1ccc(C#N)cc1F [compound 250] | 89 | 0 | 100 | 100 | – | – | – | – | –
Cc1nn(C)c(Nc2ccccc2I)c1-c1ccc(F)cc1F [compound 246] | 99 | 100 | 100 | 98 | – | – | – | – | –
Cc1nn(C)c(Nc2ccccc2Cl)c1-c1ccc(F)cc1Br [compound 272] | 100 | 100 | 100 | 99 | – | – | – | – | –
Cc1nn(C)c(Nc2c(F)cc(Cl)cc2F)c1-c1ccc(C#N)cc1F [Compound 150, 4-[5-[(4-chloro-2,6-difluorophenyl)amino]-1,3-dimethyl-1H-pyrazol-4-yl]-3-fluorobenzonitrile] | – | – | – | – | – | – | – | – | pest or weed control at 200 µg/mL ([1]; Blumeria graminis, in Triticum aestivum, read-out: Test I rating (disease control), wheat powdery mildew, 100 = 100% disease control, 0 = no disease control relative to the controls): 100%; pest or weed control at 200 µg/mL (Botrytis cinerea; Botrytis cinerea, in Solanum lycopersicum, read-out: Test A rating (disease control), tomato Botrytis, 100 = 100% disease control, 0 = no disease control relative to the controls): 100%; pest or weed control at 200 µg/mL (Septoria tritici; Zymoseptoria tritici, 100 = 100% disease control, 0 = no disease control relative to the controls): 100%; pest or weed control at 200 µg/mL ([2]; read-out: Test H rating (disease control), wheat leaf rust, sprayed the day before inoculation, 100 = 100% disease control, 0 = no disease control): 100%
COc1ccc(-c2c(C)nn(C)c2Nc2c(C)cccc2Br)c(Cl)c1 [Compound 263, N-(2-bromo-6-methylphenyl)-4-(2-chloro-4-methoxyphenyl)-1,3-dimethyl-1H-pyrazol-5-amine] | – | – | – | – | – | 99 | 100 | 79 | Test I rating (% disease control), marked * [1]: 13* %; Test E rating (% disease control), marked * (Septoria nodorum): 0* %
Cc1nn(C)c(Nc2c(Cl)cccc2Cl)c1-c1ccc(F)cc1F [compound 251] | 100 | 100 | 100 | 100 | – | – | – | – | –
Cc1cccc(Cl)c1Nc1c(-c2ccc(F)cc2Br)c(C)nn1C [Compound 276, 4-(2-bromo-4-fluorophenyl)-N-(2-chloro-6-methylphenyl)-1,3-dimethyl-1H-pyrazol-5-amine] | – | – | – | – | 92 | 100 | 100 | 99 | –
COc1ccc(-c2c(C)nn(C)c2Nc2c(C)cccc2Cl)c(F)c1 [Compound 257, N-(2-chloro-6-methylphenyl)-4-(2-fluoro-4-methoxyphenyl)-1,3-dimethyl-1H-pyrazol-5-amine] | – | – | – | – | 27 | 100 | 100 | 63 | Test E rating (% disease control), marked * (Septoria nodorum): 31* %
Cc1nn(C)c(Nc2c(F)cc(Cl)cc2F)c1-c1ccc(Br)cc1F [compound 236] | 0 | 47 | 100 | 28 | – | – | – | – | –
Cc1cccc(C)c1Nc1c(-c2ccc(F)cc2F)c(C)nn1C [Compound 270, 4-(2,4-difluorophenyl)-N-(2,6-dimethylphenyl)-1,3-dimethyl-1H-pyrazol-5-amine] | – | – | – | – | 91 | 98 | 100 | 41 | –
Cc1nn(C)c(Nc2ccc(F)cc2Cl)c1-c1ccc(C#N)cc1F [Compound 248] | 99 | 99 | 100 | 99 | – | – | – | – | –
Cc1nn(C)c(Nc2ccccc2Br)c1-c1ccc(F)cc1Br [compound 242] | – | – | – | – | – | – | – | – | Test I rating (% disease control), marked * [1]: 99* %; Test A rating (% disease control), marked * (Botrytis cinerea): 99* %; Test F rating (% disease control), marked * (Septoria tritici): 100* %; Test H rating (% disease control), marked * [2]: 96* %
Cc1nn(C)c(Nc2c(F)cc(Cl)cc2Cl)c1-c1ccc(Br)cc1F [compound 237] | 95 | 99 | 100 | 92 | – | – | – | – | –
COc1ccc(-c2c(C)nn(C)c2Nc2c(C)cccc2F)c(F)c1 [Compound 259, 4-(2-fluoro-4-methoxyphenyl)-N-(2-fluoro-6-methylphenyl)-1,3-dimethyl-1H-pyrazol-5-amine] | – | – | – | – | 90 | 100 | 100 | 82 | Test E rating (% disease control), marked * (Septoria nodorum): 0* %
Cc1cccc(C)c1Nc1c(-c2ccc(F)cc2Cl)c(C)nn1C [Compound 271, 4-(2-chloro-4-fluorophenyl)-N-(2,6-dimethylphenyl)-1,3-dimethyl-1H-pyrazol-5-amine] | – | – | – | – | 98 | 99 | 100 | 97 | –
Cc1nn(C)c(Nc2ccc(F)cc2Cl)c1-c1ccc(Br)cc1F [compound 232] | 99 | 79 | 100 | 90 | – | – | – | – | –
COc1ccc(-c2c(C)nn(C)c2Nc2c(C)cccc2Br)c(F)c1 [Compound 258, N-(2-bromo-6-methylphenyl)-4-(2-fluoro-4-methoxyphenyl)-1,3-dimethyl-1H-pyrazol-5-amine] | – | – | – | – | 0 | 100 | 100 | 9 | Test E rating (% disease control), marked * (Septoria nodorum): 0* %
